The values that follow come from patent US12403144B2, “HECT E3 ligase inhibitors and uses thereof” (IFOM FONDAZIONE ISTITUTO FIRC DI ONCOLOGIA MOLECOLARE, priority 2019, dated 2025).

For the assay, the target named is T1, HECT domain of NEDD4 (Homo sapiens, UniProt P46934).
T1 construct: crystal structure of the HECT domain of NEDD4 in complex with compound 12; made in house
T1 sequence (P46934 519-900 isoform P46934-4 limits assumed): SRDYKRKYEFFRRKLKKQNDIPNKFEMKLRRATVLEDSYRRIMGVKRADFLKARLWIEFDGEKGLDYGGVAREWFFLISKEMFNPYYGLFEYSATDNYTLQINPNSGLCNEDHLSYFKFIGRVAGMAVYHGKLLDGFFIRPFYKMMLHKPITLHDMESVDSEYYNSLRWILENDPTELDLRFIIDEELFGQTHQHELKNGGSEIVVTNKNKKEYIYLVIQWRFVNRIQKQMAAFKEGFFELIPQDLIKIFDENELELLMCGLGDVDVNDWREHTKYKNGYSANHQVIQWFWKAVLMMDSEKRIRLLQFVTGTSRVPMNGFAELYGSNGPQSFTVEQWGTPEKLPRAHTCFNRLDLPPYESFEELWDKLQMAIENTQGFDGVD
Kind of assay: X-Ray crystal structure of the HECT domain of NEDD4 in complex with compound. Format: binding. Particulars: crystal soaking; thiol group of Cys627 attacks the α,β-unsaturated ester. From the text: FIG. 2: Structure of NEDD4 HECT in complex with compound 12. a. Compound 12 (dark grey sticks representation) binding to the HECT of NEDD4 (light grey), with a Fo-Fc map, calculated omitting the ligand, contoured at 2.5α level (represented as a grey mesh). b. Details of ligand binding: compound 12 and covalently or hydrogen-bonded NEDD4 residues are in ball-and-stick representation, hydrogen bond is shown as dotted line; spoked arcs represent protein residues making nonbonded contacts with the ligand.
FIG. 3: Structure of apo NEDD4 HECT superimposed with the one of the complex HECT-compound 12. Changes in the HECT structure upon compound 12 binding. Apo-HECT (pdb entry 2xbf, version 1.2, 13 Jul. 2011) depicted as dark grey ribbon; complex depicted as light grey ribbon. Side chains of residues Glu554 and Tyr634, and to a less extent those of Tyr604 and Tyr605, as well as main and side chain of residue Cys627 (covalently bound to the inhibitor) are rearranged upon inhibitor binding.
The inventors obtained by X-Ray the crystal structure of the HECT domain of NEDD4 in complex with compound 12. […]

As to `CCOC(=O)/C=C/CNCCCCN1c2ccccc2CCc2ccc(Cl)cc21.O=C(O)/C=C\C(=O)O` [Compound 12, Ethyl (E)-4-[4-(3-chloro-10,11-dihydro-5H-dibenzo[b,f]azepin-5-yl)butylamino]but-2-enoate maleate], the “binding mode in crystal structure of NEDD4 HECT complex” value was “covalent link to the protein”.
